Converted amounts (≈) assume the structure as drawn. “And” between values parts separate entries of the source, which are not always exact repeats. Equal values may be shown once.
Key:
[1] = test system: U937KN1272, a protease resistant strain; assay: Long term in vitro study, U937KN1272; type: cell-based, HIV
Method: (§1) Toxicity quantification involves the XTT-based evaluation. Assays were designed to characterize the long term effects of the compounds on virus production and to characterize the longer term effects of the compounds on virus production from chronically HIV infected cells.
(§2) CEM-SS cells chronically infected with HIV isolate, for example SKI (CEM-SKI) are cultured in RPMI1640 tissue culture medium supplemented with 10% fetal bovine serum and antibiotics. […] CEM-SKI or other infected cells with no added drug are used as the control cells.
(§3) Cells are allowed to grow to a density of approximately 1×10^6 cells/ml and are then passaged at a 1:10 dilution. […] The drug concentration in the flask is then increased two-fold and the cells maintained as above.
(§4) The cell populations contain integrated copies of the HIV genome and constitutively produce HIV at relatively high levels or are latently infected and only produce virus after stimulation with phorbol esters, tumor necrosis factor or IL6(U1 and ACH2). Reductions in virus products were observed when quantifying supernatant reverse transcriptase activity.
Similar results are obtained with U937KN1272, a protease resistant strain, reported below.

[2] = test system: U937JE225R, a protease resistant strain; assay: Long term in vitro study, U937JE225R; type: cell-based, HIV
Method: as §1, §2, §3, §4
The results with U937JE225R cells was reported at weekly intervals.

Curvularia lunata = assay: Anti-fungal activity, MIC (NCCLS M-27A based); type: cell-based
Method: (§5) It was active against Cryptococcus neoformans and Curvularia lunata. The cidal activity for the C. neoformans is high enough that it is clear […] against this yeast. This test was conducted using a method based upon NCCLS reference method M-27A published in 1997. Solvent, medium and growth controls were set-up with the tests. Once these were read to validate the test performance, the QC fungi were read to insure they had expected results. These steps validated the test system. DMSO was used as a drug-chemical solvent. […] The 90% cut-off is necessary for azoles, which are static and not cidal. The […] or cidal level, was determined by sub-culturing a sample from each tube showing no growth.

vero cells = assay: Herpes simplex testing, toxicity (TC50); parameters: unit not given beside the values
HEPG2 2.2.15 = assay: Toxicity values in the hepatitis B test; type: cell-based; parameters: Toxicity Values, sample / Toxicity Values, mean: unit not given here
TPA-induced BCBL-1 cells = assay: Toxicity values in the HHV8 test; type: cell-based
Method: as §1
(§6) The DNA copy number and the toxicity value were measured and compared with Cidofovir. Kaposi's sarcoma (KS) is a cancer that is often found in people with weak immune systems, such as those taking immunosuppressants or those with AIDS. The exact nature of the disease is uncertain, but it is almost always found in association with HHV8.

[3] = Toxicity values in the HHV8 test; type: cell-based; conditions: human, TPA-induced BCBL-1 cells; read-out: TC50 (the source's name)
Method: as §1, §6

HIV-1 cell line, CEMRF = assay: Long term in vitro study, CEMRF; type: cell-based; conditions: 7 μg/ml
Method: as §1, §2, §3, §4
The results with CEMRF cells was reported at weekly intervals.
The CEMRF is a viral strain of the CEMSS cell line.

Cryptococcus neoformans = assay: Anti-fungal activity, MFC (NCCLS M-27A based); type: cell-based
Method: as §5

NC(=S)Nc1nsc(-c2ccccc2)n1
virus production (supernatant reverse transcriptase activity) ([1]; U937KN1272, 7 μg/ml, day 4): 119839 | virus production (supernatant reverse transcriptase activity) ([1]; U937KN1272, 7 μg/ml, day 11): 78089 | virus production (supernatant reverse transcriptase activity) ([1]; U937KN1272, 7 μg/ml, day 18): 74773 | virus production (supernatant reverse transcriptase activity) ([1]; U937KN1272, 7 μg/ml, day 25): 78997 | virus production (supernatant reverse transcriptase activity) ([1]; U937KN1272, 7 μg/ml, day 32): 31156 | virus production (supernatant reverse transcriptase activity) ([1]; U937KN1272, 7 μg/ml, day 39): 41326 | virus production (supernatant reverse transcriptase activity) ([1]; U937KN1272, 7 μg/ml, day 46): 31024 | virus production (supernatant reverse transcriptase activity) ([1]; U937KN1272, 7 μg/ml, day 53): 31209 | virus production (supernatant reverse transcriptase activity) ([1]; U937KN1272, 15 μg/ml, day 4): 103341 | virus production (supernatant reverse transcriptase activity) ([1]; U937KN1272, 15 μg/ml, day 11): 80161 | virus production (supernatant reverse transcriptase activity) ([1]; U937KN1272, 15 μg/ml, day 18): 73939 | virus production (supernatant reverse transcriptase activity) ([1]; U937KN1272, 15 μg/ml, day 25): 74262 | virus production (supernatant reverse transcriptase activity) ([1]; U937KN1272, 15 μg/ml, day 32): 26305 | virus production (supernatant reverse transcriptase activity) ([1]; U937KN1272, 15 μg/ml, day 39): 28635 | virus production (supernatant reverse transcriptase activity) ([1]; U937KN1272, 15 μg/ml, day 46): 18073 | virus production (supernatant reverse transcriptase activity) ([1]; U937KN1272, 15 μg/ml, day 53): 22110 | virus production (supernatant reverse transcriptase activity) ([1]; U937KN1272, 30 μg/ml, day 4): 114070 | virus production (supernatant reverse transcriptase activity) ([1]; U937KN1272, 30 μg/ml, day 11): 89087 | virus production (supernatant reverse transcriptase activity) ([1]; U937KN1272, 30 μg/ml, day 18): 72398 | virus production (supernatant reverse transcriptase activity) ([1]; U937KN1272, 30 μg/ml, day 25): 38006 | virus production (supernatant reverse transcriptase activity) ([1]; U937KN1272, 30 μg/ml, day 32): 6908 | virus production (supernatant reverse transcriptase activity) ([1]; U937KN1272, 30 μg/ml, day 39): 14779 | virus production (supernatant reverse transcriptase activity) ([1]; U937KN1272, 30 μg/ml, day 46): 5663 | virus production (supernatant reverse transcriptase activity) ([1]; U937KN1272, 30 μg/ml, day 53): 10534 | virus production (supernatant reverse transcriptase activity) ([2]; 7 μg/ml, day 4): 12165 | virus production (supernatant reverse transcriptase activity) ([2]; 7 μg/ml, day 11): 9465 | virus production (supernatant reverse transcriptase activity) ([2]; 7 μg/ml, day 18): 10341 | virus production (supernatant reverse transcriptase activity) ([2]; 7 μg/ml, day 25): 9079 | virus production (supernatant reverse transcriptase activity) ([2]; 7 μg/ml, day 32): 6797 | virus production (supernatant reverse transcriptase activity) ([2]; 7 μg/ml, day 39): 9792 | virus production (supernatant reverse transcriptase activity) ([2]; 7 μg/ml, day 46): 9915 | virus production (supernatant reverse transcriptase activity) ([2]; 7 μg/ml, day 53): 1094 | virus production (supernatant reverse transcriptase activity) ([2]; 15 μg/ml, day 4): 11151 | virus production (supernatant reverse transcriptase activity) ([2]; 15 μg/ml, day 11): 9935 | virus production (supernatant reverse transcriptase activity) ([2]; 15 μg/ml, day 18): 9738 | virus production (supernatant reverse transcriptase activity) ([2]; 15 μg/ml, day 25): 7104 | virus production (supernatant reverse transcriptase activity) ([2]; 15 μg/ml, day 32): 6426 | virus production (supernatant reverse transcriptase activity) ([2]; 15 μg/ml, day 39): 10618 | virus production (supernatant reverse transcriptase activity) ([2]; 15 μg/ml, day 46): 10471 | virus production (supernatant reverse transcriptase activity) ([2]; 15 μg/ml, day 53): 9756 | virus production (supernatant reverse transcriptase activity) ([2]; 30 μg/ml, day 4): 12033 | virus production (supernatant reverse transcriptase activity) ([2]; 30 μg/ml, day 11): 9859 | virus production (supernatant reverse transcriptase activity) ([2]; 30 μg/ml, day 18): 11874 | virus production (supernatant reverse transcriptase activity) ([2]; 30 μg/ml, day 25): 5281 | virus production (supernatant reverse transcriptase activity) ([2]; 30 μg/ml, day 32): 4154 | virus production (supernatant reverse transcriptase activity) ([2]; 30 μg/ml, day 39): 5379 | virus production (supernatant reverse transcriptase activity) ([2]; 30 μg/ml, day 46): 5239 | virus production (supernatant reverse transcriptase activity) ([2]; 30 μg/ml, day 53): 4423 | anti-fungal activity in vitro (Curvularia lunata): active | MIC (Curvularia lunata; growth inhibited or reduced at least 90%, read-out: MIC): 0.03 µg/mL (≈ 0.127 µM) | TC50 (vero cells): > 200 | % cell control (HEPG2 2.2.15; 0.64 μg/ml): 92.3% | Toxicity Values, mean (HEPG2 2.2.15; 0.64 μg/ml): 1.021 | Toxicity Values, sample (HEPG2 2.2.15; 0.64 μg/ml): 0.985 and 0.999 and 1.079 | % cell control (HEPG2 2.2.15; 2 μg/ml): 83.0% | Toxicity Values, mean (HEPG2 2.2.15; 2 μg/ml): 0.919 | Toxicity Values, sample (HEPG2 2.2.15; 2 μg/ml): 0.881 and 0.959 and 0.916 | % cell control (HEPG2 2.2.15; 6.4 μg/ml): 95.6% | Toxicity Values, mean (HEPG2 2.2.15; 6.4 μg/ml): 1.058 | Toxicity Values, sample (HEPG2 2.2.15; 6.4 μg/ml): 0.940 and 1.218 and 1.015 | % cell control (HEPG2 2.2.15; 20 μg/ml): 84.2% | Toxicity Values, mean (HEPG2 2.2.15; 20 μg/ml): 0.932 | Toxicity Values, sample (HEPG2 2.2.15; 20 μg/ml): 0.966 and 0.921 and 0.909 | % cell control (HEPG2 2.2.15; 64 μg/ml): 89.5% | Toxicity Values, mean (HEPG2 2.2.15; 64 μg/ml): 0.991 | Toxicity Values, sample (HEPG2 2.2.15; 64 μg/ml): 0.962 and 1.037 and 0.973 | % cell control (HEPG2 2.2.15; 200 μg/ml): 76.7% | Toxicity Values, mean (HEPG2 2.2.15; 200 μg/ml): 0.849 | Toxicity Values, sample (HEPG2 2.2.15; 200 μg/ml): 0.818 and 0.928 and 0.800 | TC50 (HEPG2 2.2.15; HEPG2 2.2.15): > 200 µg/mL | TC50 (HEPG2 2.2.15; HEPG2 2.2.15, replicate experiment): > 200 µg/mL | % cell control (TPA-induced BCBL-1 cells; 0.64 μM): 114.3% | % cell control (TPA-induced BCBL-1 cells; 2 μM): 114.9% | % cell control (TPA-induced BCBL-1 cells; 6.4 μM): 104.6% | % cell control (TPA-induced BCBL-1 cells; 20 μM): 114.8% | % cell control (TPA-induced BCBL-1 cells; 64 μM): 59.7% | % cell control (TPA-induced BCBL-1 cells; 200 μM): 23.4% | CC50 [3]: 100 µM | virus production (supernatant reverse transcriptase activity) (HIV-1 cell line, CEMRF; day 4): 5423 | virus production (supernatant reverse transcriptase activity) (HIV-1 cell line, CEMRF; day 11): 2249 | virus production (supernatant reverse transcriptase activity) (HIV-1 cell line, CEMRF; day 18): 2951 | virus production (supernatant reverse transcriptase activity) (HIV-1 cell line, CEMRF; day 25): 3606 | anti-fungal activity in vitro (Cryptococcus neoformans): active | MFC (Cryptococcus neoformans; cidal level, read-out: MFC): 32 µg/mL (≈ 135 µM)
